Measurements as given in patent publication US20150181873A1, “HERBICIDE-RESISTANT SUNFLOWER PLANTS, POLYNUCLEOTIDES ENCODING HERBICIDE=RESISTANT ACETO HYDROXY ACID SYNTHASE LARGE SUBUNIT PROTEINS, AND METHODS OF USE” (NIDERA S.A., priority 2013, published 2015).
Several values for one entry are separate records, joined by “and”; a condition that tells them apart may be missing. Equal entries are not always repeated.

Columns and labels:
Assay type in all cases: in vivo, Helianthus annuus
[1] = test system: sunflower line GIM 5-7 (A205V); experiment: Greenhouse imazapir dose response, GIM 5-7; conditions: GIM5-7 (A205V), 14 DAT
Protocol: (§1) A greenhouse study was conducted to quantify and contrast the imazapir sensivity of the mutants A122T and A205V in different genetic backgrounds at the whole plant level in sunflower. Seeds of the different sunflower lines that were used in this study were obtained under field conditions.
(§2) Seeds were sown in Petri dishes and, after germination, plantlets were transplanted to pots of 10 cm of diameter in a potting media consisting of equal parts of vermiculite, soil and sand. Plants were grown in a greenhouse under natural light conditions supplemented with 400 W sodium halide lamps to provide a 16 hrs daylength. Day/night temperatures were 25 and 20° C., respectively. At the V2 stage 10 plants of each genotype were randomly assigned to each treatment consisting of […] imazapir doses (0, 40, 80, 160, 240, 320, 400 and 480 g ai/ha), and a zero-time biomass determination. Experiment was arranged as a randomized block design with a full factorial (sunflower line×treatment) arrangement of treatments and 10 replications.
(§3) On the day of herbicide application ten plants of each genotype were cut at the cotyledonal node and dried at 60° C. for 48 hrs zero-time for dried weight determination. […] Height was determined as the distance between the cotyledonal node and the apex of each plant. For root biomass determination, each plant was taken from the pot and the potting media was washed out from the roots. Above ground biomass data from each line were converted to biomass accumulation after application by subtracting the appropriate average zero-time biomass from each sample. Dry biomass data were converted to percentages of the untreated control plants within each line to allow direct comparisons between groups.

[2] = test system: sunflower line IB920 (A205V); experiment: Greenhouse imazapir dose response, IB920; conditions: 14 DAT
Protocol: as §1, §2, §3

[3] = test system: sunflower genotypes carrying the A122T mutation event; experiment: Greenhouse imazapir dose response, A122T genotypes together; conditions: 14 DAT; for biomass accumulation, Dif with control / plant height, Dif with Control / root dry weight, Dif with control: A122T mean; for Phytotoxicity Index, Dif A205V − A122T / biomass accumulation, Dif A122T − A205V / plant height, Dif A122T − A205V / root dry weight, Dif A122T − A205V: difference of group means; for biomass accumulation, % of untreated, Mean / plant height, % of untreated, Mean / root dry weight, % of untreated, Mean: six A122T genotypes; for Phytotoxicity Index, Mean: three A122T genotypes
Protocol: as §1, §2, §3

CC(C)C1(C)N=C(c2ncccc2C(=O)O)NC1=O (centres unmarked) [Imazapyr, imazapyr]
biomass accumulation, % of untreated ([1]; 0.5x (40 g ai/ha)): 92.9%
plant height, % of untreated ([1]; 0.5x (40 g ai/ha)): 79.1%
root dry weight, % of untreated ([1]; 0.5x (40 g ai/ha)): 79.2%
biomass accumulation, % of untreated ([1]; 1x (80 g ai/ha)): 75.1%
plant height, % of untreated ([1]; 1x (80 g ai/ha)): 76.7%
root dry weight, % of untreated ([1]; 1x (80 g ai/ha)): 56.3%
biomass accumulation, % of untreated ([1]; 2x (160 g ai/ha)): 55.1%
plant height, % of untreated ([1]; 2x (160 g ai/ha)): 57.7%
root dry weight, % of untreated ([1]; 2x (160 g ai/ha)): 40.6%
biomass accumulation, % of untreated ([1]; 3x (240 g ai/ha)): 45.6%
plant height, % of untreated ([1]; 3x (240 g ai/ha)): 55.3%
root dry weight, % of untreated ([1]; 3x (240 g ai/ha)): 40.2%
biomass accumulation, % of untreated ([1]; 4x (320 g ai/ha)): 31.8%
plant height, % of untreated ([1]; 4x (320 g ai/ha)): 27.3%
root dry weight, % of untreated ([1]; 4x (320 g ai/ha)): 34.0%
biomass accumulation, % of untreated ([1]; 5x (400 g ai/ha)): 34.2%
plant height, % of untreated ([1]; 5x (400 g ai/ha)): 37.2%
root dry weight, % of untreated ([1]; 5x (400 g ai/ha)): 48.5%
biomass accumulation, % of untreated ([1]; 6x (480 g ai/ha)): 36.8%
plant height, % of untreated ([1]; 6x (480 g ai/ha)): 30.0%
root dry weight, % of untreated ([1]; 6x (480 g ai/ha)): 43.1%
biomass accumulation, % of untreated ([2]; 0.5x (40 g ai/ha)): 93.9%
plant height, % of untreated ([2]; 0.5x (40 g ai/ha)): 96.2%
root dry weight, % of untreated ([2]; 0.5x (40 g ai/ha)): 94.0%
biomass accumulation, % of untreated ([2]; 1x (80 g ai/ha)): 87.9%
plant height, % of untreated ([2]; 1x (80 g ai/ha)): 80.0%
root dry weight, % of untreated ([2]; 1x (80 g ai/ha)): 89.6%
biomass accumulation, % of untreated ([2]; 2x (160 g ai/ha)): 58.8%
plant height, % of untreated ([2]; 2x (160 g ai/ha)): 61.5%
root dry weight, % of untreated ([2]; 2x (160 g ai/ha)): 50.7%
biomass accumulation, % of untreated ([2]; 3x (240 g ai/ha)): 46.4%
plant height, % of untreated ([2]; 3x (240 g ai/ha)): 40.9%
root dry weight, % of untreated ([2]; 3x (240 g ai/ha)): 37.3%
biomass accumulation, % of untreated ([2]; 4x (320 g ai/ha)): 35.5%
plant height, % of untreated ([2]; 4x (320 g ai/ha)): 27.9%
root dry weight, % of untreated ([2]; 4x (320 g ai/ha)): 32.8%
biomass accumulation, % of untreated ([2]; 5x (400 g ai/ha)): 33.9%
plant height, % of untreated ([2]; 5x (400 g ai/ha)): 30.0%
root dry weight, % of untreated ([2]; 5x (400 g ai/ha)): 25.4%
biomass accumulation, % of untreated ([2]; 6x (480 g ai/ha)): 29.4%
plant height, % of untreated ([2]; 6x (480 g ai/ha)): 27.1%
root dry weight, % of untreated ([2]; 6x (480 g ai/ha)): 19.4%
biomass accumulation, Dif with control ([3]; 0.5x (40 g ai/ha)): 1.1%
plant height, Dif with Control ([3]; 0.5x (40 g ai/ha)): 0.6%
root dry weight, Dif with control ([3]; 0.5x (40 g ai/ha)): 0.1%
biomass accumulation, Dif with control ([3]; 1x (80 g ai/ha)): 3.2%
plant height, Dif with Control ([3]; 1x (80 g ai/ha)): 1.4%
root dry weight, Dif with control ([3]; 1x (80 g ai/ha)): 2.5%
biomass accumulation, Dif with control ([3]; 2x (160 g ai/ha)): 5.1%
plant height, Dif with Control ([3]; 2x (160 g ai/ha)): 2.7%
root dry weight, Dif with control ([3]; 2x (160 g ai/ha)): 5.9%
biomass accumulation, Dif with control ([3]; 3x (240 g ai/ha)): 7.2%
plant height, Dif with Control ([3]; 3x (240 g ai/ha)): 4.4%
root dry weight, Dif with control ([3]; 3x (240 g ai/ha)): 10.6%
biomass accumulation, Dif with control ([3]; 4x (320 g ai/ha)): 12.2%
plant height, Dif with Control ([3]; 4x (320 g ai/ha)): 6.3%
root dry weight, Dif with control ([3]; 4x (320 g ai/ha)): 18.6%
biomass accumulation, Dif with control ([3]; 5x (400 g ai/ha)): 20.7%
plant height, Dif with Control ([3]; 5x (400 g ai/ha)): 10.2%
root dry weight, Dif with control ([3]; 5x (400 g ai/ha)): 21.3%
plant height, Dif with Control ([3]; 6x (480 g ai/ha)): 15.8%
root dry weight, Dif with control ([3]; 6x (480 g ai/ha)): 38.3%
biomass accumulation, Dif with control ([3]; 6x (480 g ai/ha), listed as imazapir): 25% and 25.4%
Phytotoxicity Index, Dif A205V − A122T ([3]; 0.5x (40 g ai/ha)): −0.29
biomass accumulation, Dif A122T − A205V ([3]; 0.5x (40 g ai/ha)): 4.3%
plant height, Dif A122T − A205V ([3]; 0.5x (40 g ai/ha)): 4.9%
root dry weight, Dif A122T − A205V ([3]; 0.5x (40 g ai/ha)): 12.7%
Phytotoxicity Index, Dif A205V − A122T ([3]; 1x (80 g ai/ha)): −0.29
biomass accumulation, Dif A122T − A205V ([3]; 1x (80 g ai/ha)): 14.5%
plant height, Dif A122T − A205V ([3]; 1x (80 g ai/ha)): 9.4%
root dry weight, Dif A122T − A205V ([3]; 1x (80 g ai/ha)): 26.7%
Phytotoxicity Index, Dif A205V − A122T ([3]; 2x (160 g ai/ha)): 1.87
biomass accumulation, Dif A122T − A205V ([3]; 2x (160 g ai/ha)): 33.2%
plant height, Dif A122T − A205V ([3]; 2x (160 g ai/ha)): 28.0%
root dry weight, Dif A122T − A205V ([3]; 2x (160 g ai/ha)): 43.6%
Phytotoxicity Index, Dif A205V − A122T ([3]; 3x (240 g ai/ha)): 4.81
biomass accumulation, Dif A122T − A205V ([3]; 3x (240 g ai/ha)): 45.3%
plant height, Dif A122T − A205V ([3]; 3x (240 g ai/ha)): 45.3%
root dry weight, Dif A122T − A205V ([3]; 3x (240 g ai/ha)): 50.2%
Phytotoxicity Index, Dif A205V − A122T ([3]; 4x (320 g ai/ha)): 6.92
biomass accumulation, Dif A122T − A205V ([3]; 4x (320 g ai/ha)): 52.4%
plant height, Dif A122T − A205V ([3]; 4x (320 g ai/ha)): 59.9%
root dry weight, Dif A122T − A205V ([3]; 4x (320 g ai/ha)): 50.3%
Phytotoxicity Index, Dif A205V − A122T ([3]; 5x (400 g ai/ha)): 7.38
biomass accumulation, Dif A122T − A205V ([3]; 5x (400 g ai/ha)): 46.9%
plant height, Dif A122T − A205V ([3]; 5x (400 g ai/ha)): 57.8%
root dry weight, Dif A122T − A205V ([3]; 5x (400 g ai/ha)): 47.9%
Phytotoxicity Index, Dif A205V − A122T ([3]; 6x (480 g ai/ha)): 7.03
biomass accumulation, Dif A122T − A205V ([3]; 6x (480 g ai/ha)): 44.6%
plant height, Dif A122T − A205V ([3]; 6x (480 g ai/ha)): 54.0%
root dry weight, Dif A122T − A205V ([3]; 6x (480 g ai/ha)): 37.3%
biomass accumulation, % of untreated, Mean ([3]; 0.5x (40 g ai/ha)): 98.9%
plant height, % of untreated, Mean ([3]; 0.5x (40 g ai/ha)): 99.4%
root dry weight, % of untreated, Mean ([3]; 0.5x (40 g ai/ha)): 99.9%
biomass accumulation, % of untreated, Mean ([3]; 1x (80 g ai/ha)): 96.8%
plant height, % of untreated, Mean ([3]; 1x (80 g ai/ha)): 98.6%
root dry weight, % of untreated, Mean ([3]; 1x (80 g ai/ha)): 97.5%
biomass accumulation, % of untreated, Mean ([3]; 2x (160 g ai/ha)): 94.9%
plant height, % of untreated, Mean ([3]; 2x (160 g ai/ha)): 97.3%
root dry weight, % of untreated, Mean ([3]; 2x (160 g ai/ha)): 94.1%
biomass accumulation, % of untreated, Mean ([3]; 3x (240 g ai/ha)): 92.8%
plant height, % of untreated, Mean ([3]; 3x (240 g ai/ha)): 95.6%
root dry weight, % of untreated, Mean ([3]; 3x (240 g ai/ha)): 89.4%
biomass accumulation, % of untreated, Mean ([3]; 4x (320 g ai/ha)): 87.8%
plant height, % of untreated, Mean ([3]; 4x (320 g ai/ha)): 93.7%
root dry weight, % of untreated, Mean ([3]; 4x (320 g ai/ha)): 81.4%
biomass accumulation, % of untreated, Mean ([3]; 5x (400 g ai/ha)): 79.3%
plant height, % of untreated, Mean ([3]; 5x (400 g ai/ha)): 89.8%
root dry weight, % of untreated, Mean ([3]; 5x (400 g ai/ha)): 78.7%
biomass accumulation, % of untreated, Mean ([3]; 6x (480 g ai/ha)): 74.6%
plant height, % of untreated, Mean ([3]; 6x (480 g ai/ha)): 84.2%
root dry weight, % of untreated, Mean ([3]; 6x (480 g ai/ha)): 61.7%
Phytotoxicity Index, Mean ([3]; 0.5x (40 g ai/ha)): 0.3
Phytotoxicity Index, Mean ([3]; 1x (80 g ai/ha)): 0.3
Phytotoxicity Index, Mean ([3]; 2x (160 g ai/ha)): 0.3
Phytotoxicity Index, Mean ([3]; 3x (240 g ai/ha)): 0.3
Phytotoxicity Index, Mean ([3]; 4x (320 g ai/ha)): 0.5
Phytotoxicity Index, Mean ([3]; 5x (400 g ai/ha)): 0.8
Phytotoxicity Index, Mean ([3]; 6x (480 g ai/ha)): 1.2
